Assay results from patent US20030148285A1, “Mammalian SIMP protein, gene sequence and uses thereof in cancer therapy” (priority 2001, published 2003).

Columns and labels:
[1] = tested on: B6^dom1-specific T-cells (C3H.SW target cells coated with synthetic peptides); details: previously shown; cited from earlier work
[2] = tested on: B6^dom1-specific T-cells (C3H.SW target cells coated with synthetic peptides); assay: 51Cr release cytotoxicity assay: peptide recognition by C3H.SW anti-C57BL/6 CTLs; assay type: cell-based, mouse; details: effector to target ratio 50:1, FIG. 1
Experimental: Cytotoxic activity was assessed in a standard ^51Cr release assay (Pion et al., 1997. Eur. J. Immunol. 27:421-430). Target blast cells, prepared by culturing C3H.SW spleen cells (3×10^6/ml) with 5 μg/ml of Concanavalin A (Con A; Sigma Chemical Co., St-Louis, Mo.) for 48 hours, were labeled with 100 μCi Na2^51Cr (Dupont Co., Wilmington, Del.) for 90 minutes, sensitized with synthetic peptides for 90 minutes, then mixed with C3H.SW anti-C57BL/6 effector cells at a 50:1 effector to target ratio. Cells were then incubated for 4 hours at 37° C. in a humidified atmosphere of 5% CO2. Afterwards, supernatants were harvested and counted in a gamma counter. All tests were done in triplicate. Spontaneous release was below 15%. Results are expressed as a percentage of specific lysis calculated as follows: % specific lysis=100×(experimental release−spontaneous release)/(maximum release−spontaneous release).

AAPDNRETF
Recognition by B6^dom1-specific T-cells [1]: recognised by B6^dom1-specific T-cells

KAPDNRETL [synthetic peptide]
Recognition by B6^dom1-specific CTLs (specific lysis of peptide-coated C3H.SW targets) ([2]; peptide at 10^−8 M): recognised more efficiently than the AAPDNRETF peptide

KAPDNRDTL [synthetic peptide; product of the putative B6^dom1 allele found in B6^dom1− strains of mice]
Recognition by B6^dom1-specific CTLs (specific lysis of peptide-coated C3H.SW targets) ([2]; peptide even at 10^−5 M): not recognised
